In US12570655B2, “Cysteine covalent modifiers of AKT1 and uses thereof” (Terremoto Biosciences, Inc., priority 2023, dated 2026) one finds IC50 data, which are given here for 16 molecules.

Read-outs that look alike come from different tables or passages of the source.

Type in all cases: cell-based
For assay [1], the target named is T1, AKT1 E17K (Homo sapiens, UniProt P31749, E17K).
T1 construct: expressed in transfected cells; host or cells: HEK293
Description: Live cell AKT1 E17K target engagement by NanoBRET competitive probe displacement. Conditions: HEK293 cells transfected with kinase-NanoLuciferase fusion, 2 h at 37° C. The method, boiled down:
(§1)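 NanoLuc-kinase fusions, HEK293, transfected overnight; compound serial dilution + ATP-competitive fluorescent tracer at ~EC50; 2 h, 37 °C. Read 460/600 nm with extracellular NanoLuc inhibitor; BRET = E600/E460; IC50 by Hill fit.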
(BRET reads energy transfer from a luciferase to a nearby fluorophore.)

For assay [2], the target named is T2, AKT2 (Homo sapiens, UniProt P31751).
T2 construct: expressed in transfected cells; host or cells: HEK293
Description: Live cell AKT2 target engagement by NanoBRET competitive probe displacement. Particulars: HEK293 cells transfected with kinase-NanoLuciferase fusion, 2 h at 37° C. The method, boiled down:
as §1

Assay [3] addresses T3, AKT1 WT (Homo sapiens, UniProt P31749).
T3 construct: expressed in transfected cells; host or cells: HEK293
Description: Live cell AKT1 WT target engagement by NanoBRET competitive probe displacement. Particulars: HEK293 cells transfected with kinase-NanoLuciferase fusion, 2 h at 37° C. The method, boiled down: as §1

For assay [4], the system named is LAPC4 prostate cancer cells. Description: Antiproliferative effects in LAPC4 cells (CellTiter Glo). Conditions: LAPC4 cells (AKT1 E17K allele), read-out: LAPC4 proliferation IC50. The essentials:
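Luminescent ATP read-out (CellTiter Glo) after 72 h compound exposure; 1,000 cells/well in IMDM + 12% FBS + 1% P/S. IC50 by Hill equation fit of luminescence vs. log(inhibitor).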
(In general: Cellular ATP, detected with luciferase, serves as a proxy for viable cell number.)

T3 sequence (P31749 whole entry): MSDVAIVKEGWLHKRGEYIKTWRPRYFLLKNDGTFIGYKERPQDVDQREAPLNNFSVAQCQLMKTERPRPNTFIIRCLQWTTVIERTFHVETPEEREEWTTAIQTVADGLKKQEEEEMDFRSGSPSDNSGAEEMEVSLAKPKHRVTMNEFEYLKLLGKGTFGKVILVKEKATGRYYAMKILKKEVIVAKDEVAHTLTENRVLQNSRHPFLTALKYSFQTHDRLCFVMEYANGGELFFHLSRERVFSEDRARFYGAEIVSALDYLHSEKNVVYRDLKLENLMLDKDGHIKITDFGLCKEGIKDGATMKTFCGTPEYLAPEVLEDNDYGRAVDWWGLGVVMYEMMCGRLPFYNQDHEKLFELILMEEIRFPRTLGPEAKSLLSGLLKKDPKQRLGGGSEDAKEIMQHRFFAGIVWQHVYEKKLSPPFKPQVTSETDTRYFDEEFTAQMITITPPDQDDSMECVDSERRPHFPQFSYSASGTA
T1 sequence (P31749 whole entry E17K): as the sequence (P31749 whole entry) above, with E17K counted along it
T2 sequence (P31751 whole entry): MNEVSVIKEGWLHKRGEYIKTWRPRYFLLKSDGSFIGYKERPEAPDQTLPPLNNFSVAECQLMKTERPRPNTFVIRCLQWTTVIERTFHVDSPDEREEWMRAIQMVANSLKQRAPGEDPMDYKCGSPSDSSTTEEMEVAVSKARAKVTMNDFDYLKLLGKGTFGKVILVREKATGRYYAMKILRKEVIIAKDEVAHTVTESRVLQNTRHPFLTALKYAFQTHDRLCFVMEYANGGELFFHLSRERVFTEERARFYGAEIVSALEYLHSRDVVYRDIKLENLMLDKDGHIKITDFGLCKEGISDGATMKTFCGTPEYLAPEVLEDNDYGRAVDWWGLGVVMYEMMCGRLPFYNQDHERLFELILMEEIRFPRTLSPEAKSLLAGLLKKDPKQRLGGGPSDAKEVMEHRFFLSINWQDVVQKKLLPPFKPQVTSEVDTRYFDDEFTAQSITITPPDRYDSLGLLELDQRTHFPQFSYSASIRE

As for `C=CC(=O)N1CCC(CN[C@H]2CCc3cc(-n4c(-c5cccnc5N)nc5ccc(-n6cccn6)nc54)ccc32)CC1` [Example 68, 1-[4-({[(1S)-5-[2-(2-aminopyridin-3-yl)-5-(pyrazol-1-yl)imidazo[4,5-b]pyridin-3-yl]-2,3-dihydro-1H-inden-1-yl]amino}methyl)piperidin-1-yl]prop-2-en-1-one], the IC50 in assay [1] was 21.9 nM; in assay [2], 74.2 nM; in assay [3], 9.84 nM; in assay [4] (Homo sapiens, LAPC4, 72 h), 75.6 nM.
Regarding `C=CC(=O)N1CCC(N[C@H]2CCc3cc(-n4c(-c5cccnc5N)nc5ccc(-c6cccnc6)nc54)ccc32)CC1` [Example 110, (S)-1-(4-((5-(2-(2-aminopyridin-3-yl)-5-(pyridin-3-yl)-3H-imidazo[4,5-b]pyridin-3-yl)-2,3-dihydro-1H-inden-1-yl)amino)piperidin-1-yl)prop-2-en-1-one], the IC50 in assay [1] was 141 nM; in assay [2], 628 nM; in assay [3], 21.8 nM; in assay [4] (Homo sapiens, LAPC4, 72 h) it was 298 nM.
On to `Nc1ncccc1-c1nc2ccc(-n3cccn3)nc2n1-c1ccc2c(c1)CC[C@@H]2NC1CCN(C(=O)CCl)CC1` [Example 197, 1-(4-{[(1S)-5-[2-(2-aminopyridin-3-yl)-5-(pyrazol-1-yl)imidazo[4,5-b]pyridin-3-yl]-2,3-dihydro-1H-inden-1-yl]amino}piperidin-1-yl)-2-chloroethanone], for which the IC50 was found to be 18.9 nM in assay [1]; 28.6 nM in assay [2]; 121 nM in assay [3]; 469 nM in assay [4] (Homo sapiens, LAPC4, 72 h).
The matching figures for `C=CC(=O)N1CCC(N[C@@H]2c3ccc(-n4c(-c5cccnc5N)nc5ccc(-n6ccc(F)n6)nc54)cc3CC2F)CC1` (single isomer, unassigned) [Example 236, 1-(4-(((1R,2*)-5-(2-(2-aminopyridin-3-yl)-5-(3-fluoro-1H-pyrazol-1-yl)-3H-imidazo[4,5-b]pyridin-3-yl)-2-fluoro-2,3-dihydro-1H-inden-1-yl)amino)piperidin-1-yl)prop-2-en-1-one]: 12.4 nM, 87.2 nM, 778 nM and 300 nM.
`C=CC(=O)N1C[C@H]2C[C@@H]1CC2N[C@H]1CCc2cc(-n3c(-c4cccnc4N)nc4ccc(-n5cccn5)nc43)ccc21` (single isomer, unassigned) [Example 138, 1-[(1R,4R,5*)-5-{[(1S)-5-[2-(2-aminopyridin-3-yl)-5-(pyrazol-1-yl)imidazo[4,5-b]pyridin-3-yl]-2,3-dihydro-1H-inden-1-yl]amino}-2-azabicyclo[2.2.1]heptan-2-yl]prop-2-en-1-one]: the IC50 in assay [1] amounted to 744 nM; in assay [2], 1810 nM; in assay [3] it was 289 nM; in assay [4] (72 h), 963 nM.
The matching figures for `C=CC(=O)N1CC2CC[C@H]1CC2N[C@H]1CCc2cc(-n3c(-c4cccnc4N)nc4ccc(-n5cccn5)nc43)ccc21` (single isomer, unassigned) [Example 134, 1-[(1S,4S,5*)-5-{[(1S)-5-[2-(2-aminopyridin-3-yl)-5-(pyrazol-1-yl)imidazo[4,5-b]pyridin-3-yl]-2,3-dihydro-1H-inden-1-yl]amino}-2-azabicyclo[2.2.2]octan-2-yl]prop-2-en-1-one]: 232 nM, 2710 nM, 72.4 nM and 1150 nM.
The matching figures for `C=CC(=O)N1CCC(N[C@H]2CCc3cc(-n4c(-c5cccnc5N)nc5ccc(-n6cccn6)nc54)ccc32)C1` (single isomer, unassigned) [Example 57, 1-((*)-3-(((S)-5-(2-(2-aminopyridin-3-yl)-5-(1H-pyrazol-1-yl)-3H-imidazo[4,5-b]pyridin-3-yl)-2,3-dihydro-1H-inden-1-yl)amino)pyrrolidin-1-yl)prop-2-en-1-one]: 21.9 nM, 84.6 nM, 10.4 nM and 104 nM.
Turning to `C=CC(=O)N1CCC(N[C@@H]2c3ccc(-n4c(-c5cccnc5N)nc5ccc(-n6ccc(OC)n6)nc54)cc3CC2F)CC1` (single isomer, unassigned) [Example 287, 1-(4-(((1R,2*)-5-(2-(2-aminopyridin-3-yl)-5-(3-methoxy-1H-pyrazol-1-yl)-3H-imidazo[4,5-b]pyridin-3-yl)-2-fluoro-2,3-dihydro-1H-inden-1-yl)amino)piperidin-1-yl)prop-2-en-1-one], the IC50 in assay [1] came to 7.68 nM; in assay [2] it was 41.8 nM; in assay [3], 227 nM; in assay [4] (72 h), 110 nM.
On to `C=CC(=O)N1CCC(N[C@H]2CCc3cc(-n4c(-c5cccnc5N)nc5ccc(OC6CC6)nc54)ccc32)CC1` [Example 198, 1-(4-{[(1S)-5-[2-(2-aminopyridin-3-yl)-5-cyclopropoxyimidazo[4,5-b]pyridin-3-yl]-2,3-dihydro-1H-inden-1-yl]amino}piperidin-1-yl)prop-2-en-1-one], for which the IC50 in assay [1] came out at 16 nM; in assay [2], 27 nM; in assay [3], 835 nM; in assay [4] (Homo sapiens, LAPC4, 72 h), 461 nM.
The matching figures for `Nc1ncccc1-c1nc2ccc(-n3cccn3)nc2n1-c1ccc2c(c1)CC[C@@H]2NC1CCN(C(=O)C(F)Cl)CC1` (stereo partly drawn) [Example 173, 1-(4-{[(1S)-5-[2-(2-aminopyridin-3-yl)-5-(pyrazol-1-yl)imidazo[4,5-b]pyridin-3-yl]-2,3-dihydro-1H-inden-1-yl]amino}piperidin-1-yl)-2-chloro-2-fluoroethanone]: 56.5 nM, 324 nM, 1340 nM and 748 nM.
Consider `C#CC1CC(N[C@H]2CCc3cc(-n4c(-c5cccnc5N)nc5ccc(-n6cccn6)nc54)ccc32)CCN1C(=O)C=C` (single isomer, unassigned) [Example 113, 1-((2*,4*)-4-(((S)-5-(2-(2-aminopyridin-3-yl)-5-(1H-pyrazol-1-yl)-3H-imidazo[4,5-b]pyridin-3-yl)-2,3-dihydro-1H-inden-1-yl)amino)-2-ethynylpiperidin-1-yl)prop-2-en-1-one], for which the IC50 was 8.87 nM in assay [1], 50.9 nM in assay [2], 7.33 nM in assay [3] and 25.3 nM in assay [4] (72 h).
The matching figures for `C=CC(=O)N1CCC(N[C@H]2CCc3cc(-n4c(-c5cccnc5N)nc5ccc(-n6cccn6)nc54)ccc32)CC12CCC2` (single isomer, unassigned) [Example 93, 1-((*)-8-(((S)-5-(2-(2-aminopyridin-3-yl)-5-(1H-pyrazol-1-yl)-3H-imidazo[4,5-b]pyridin-3-yl)-2,3-dihydro-1H-inden-1-yl)amino)-5-azaspiro[3.5]nonan-5-yl)prop-2-en-1-one]: 6.16 nM, 11.4 nM, 5.63 nM and 5.02 nM.
Turning to `C=CC(=O)N1CC2CC[C@@H]1CC2N[C@H]1CCc2cc(-n3c(-c4cccnc4N)nc4ccc(-n5cccn5)nc43)ccc21` (single isomer, unassigned) [Example 131, 1-[(1R,4R,5*)-5-{[(1S)-5-[2-(2-aminopyridin-3-yl)-5-(pyrazol-1-yl)imidazo[4,5-b]pyridin-3-yl]-2,3-dihydro-1H-inden-1-yl]amino}-2-azabicyclo[2.2.2]octan-2-yl]prop-2-en-1-one], the IC50 in assay [1] was > 1000 nM; in assay [2], 9530 nM; in assay [3] it was > 1000 nM; in assay [4] (Homo sapiens, LAPC4, 72 h), 1840 nM.
On to `C=CC(=O)Nc1ccccc1C(=O)N[C@H]1CCc2cc(-n3c(-c4cccnc4N)nc4ccc(-n5nccn5)nc43)ccc21` [Example 19, (S)-2-acrylamido-N-(5-(2-(2-aminopyridin-3-yl)-5-(2H-1,2,3-triazol-2-yl)-3H-imidazo[4,5-b]pyridin-3-yl)-2,3-dihydro-1H-inden-1-yl)benzamide], for which the IC50 is 27 nM in assay [1]; 326 nM in assay [2]; 15.8 nM in assay [3]; 88 nM in assay [4] (Homo sapiens, LAPC4, 72 h).
`C=CC(=O)Nc1cccc(C(=O)N[C@H]2CCc3cc(-n4c(-c5cccnc5N)nc5ccc(-n6cccn6)nc54)ccc32)c1` [Example 2, (S)-3-acrylamido-N-(5-(2-(2-aminopyridin-3-yl)-5-(1H-pyrazol-1-yl)-3H-imidazo[4,5-b]pyridin-3-yl)-2,3-dihydro-1H-inden-1-yl)benzamide]: the IC50 worked out at 22.7 nM in assay [1]; 117 nM in assay [2]; 18.7 nM in assay [3]; 189 nM in assay [4] (Homo sapiens, LAPC4, 72 h).
With `C=CC(=O)N1CCC(N[C@@H]2c3ccc(-n4c(-c5cccnc5N)nc5ccc(-n6cccn6)nc54)cc3CC2C)CC1` (single isomer, unassigned) [Example 181, 1-(4-{[(1S,2*)-5-[2-(2-aminopyridin-3-yl)-5-(pyrazol-1-yl)imidazo[4,5-b]pyridin-3-yl]-2-methyl-2,3-dihydro-1H-inden-1-yl]amino}piperidin-1-yl)prop-2-en-1-one], the IC50 in assay [1] was determined as 58.7 nM; in assay [2], 513 nM; in assay [3], 1140 nM; in assay [4] (72 h), 941 nM.
